Patent publication US12539292B2, “BRM targeting compounds and associated methods of use” (Arvinas Operations, Inc., priority 2018, dated 2026)
Read-outs that look alike come from different tables or passages of the source.

Target: T1, BRM (Homo sapiens, UniProt P51531)
T1 construct: In-Cell Western Screen of BRM Degradation in SW1573 Cells; endogenous in cells; host or cells: SW1573
Assay: In-cell Western screen of BRM degradation in SW1573 cells (Dmax and DC50)
Type: cell-based
Conditions: BRM degradation, SW1573 cells, Table 2D; for Dmax: read-out: **Dmax (%) (% degraded)
In short: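 Near-infrared imaging on a LI-COR Odyssey (800 and 680 nm channels) quantifies BRM remaining in fixed SW1573 cells. Cells are dosed for 18-20 h at 0.1% final DMSO, and degradation is expressed as Dmax and DC50.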

T1 sequence (P51531 whole entry): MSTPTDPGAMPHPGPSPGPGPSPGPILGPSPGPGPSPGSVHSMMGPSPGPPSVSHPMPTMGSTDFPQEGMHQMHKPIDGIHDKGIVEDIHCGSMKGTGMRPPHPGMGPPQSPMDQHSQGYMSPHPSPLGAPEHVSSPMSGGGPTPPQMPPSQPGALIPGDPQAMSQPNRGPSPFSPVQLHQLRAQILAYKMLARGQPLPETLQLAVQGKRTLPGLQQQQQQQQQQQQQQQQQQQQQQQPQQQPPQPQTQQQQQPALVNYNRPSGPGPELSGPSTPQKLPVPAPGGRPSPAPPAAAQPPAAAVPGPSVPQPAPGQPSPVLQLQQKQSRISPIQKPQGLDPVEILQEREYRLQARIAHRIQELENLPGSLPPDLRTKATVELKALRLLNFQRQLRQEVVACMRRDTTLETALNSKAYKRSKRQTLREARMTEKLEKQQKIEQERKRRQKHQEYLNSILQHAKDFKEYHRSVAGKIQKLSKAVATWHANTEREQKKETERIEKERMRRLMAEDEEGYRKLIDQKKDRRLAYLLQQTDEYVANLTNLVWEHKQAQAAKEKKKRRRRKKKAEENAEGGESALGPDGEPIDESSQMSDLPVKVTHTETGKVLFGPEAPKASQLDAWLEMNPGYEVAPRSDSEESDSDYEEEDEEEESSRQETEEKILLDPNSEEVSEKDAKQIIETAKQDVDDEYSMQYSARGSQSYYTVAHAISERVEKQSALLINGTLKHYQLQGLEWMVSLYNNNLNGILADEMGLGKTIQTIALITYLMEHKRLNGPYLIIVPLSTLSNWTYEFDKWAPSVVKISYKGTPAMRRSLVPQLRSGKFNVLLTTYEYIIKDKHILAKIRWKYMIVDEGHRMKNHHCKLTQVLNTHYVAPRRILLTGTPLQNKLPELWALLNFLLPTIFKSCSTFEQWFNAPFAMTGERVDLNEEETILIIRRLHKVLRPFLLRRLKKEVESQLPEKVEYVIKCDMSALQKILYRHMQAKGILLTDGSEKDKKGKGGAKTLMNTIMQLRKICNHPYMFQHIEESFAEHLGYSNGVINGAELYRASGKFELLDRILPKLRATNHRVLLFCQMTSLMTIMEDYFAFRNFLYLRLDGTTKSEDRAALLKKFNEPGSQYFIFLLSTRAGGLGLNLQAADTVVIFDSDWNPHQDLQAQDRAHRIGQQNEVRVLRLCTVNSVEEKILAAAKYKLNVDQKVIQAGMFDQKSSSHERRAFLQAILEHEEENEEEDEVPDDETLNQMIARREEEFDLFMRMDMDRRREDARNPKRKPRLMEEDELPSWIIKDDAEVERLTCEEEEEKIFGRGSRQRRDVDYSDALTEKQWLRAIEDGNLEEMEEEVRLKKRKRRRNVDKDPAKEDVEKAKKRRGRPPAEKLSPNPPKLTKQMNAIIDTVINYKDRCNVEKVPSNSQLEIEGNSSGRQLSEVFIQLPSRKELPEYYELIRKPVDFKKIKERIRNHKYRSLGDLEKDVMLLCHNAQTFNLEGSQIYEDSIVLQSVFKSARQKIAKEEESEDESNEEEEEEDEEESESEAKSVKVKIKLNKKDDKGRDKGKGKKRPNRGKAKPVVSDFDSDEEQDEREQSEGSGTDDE

Row | Structure (SMILES) | Dmax [%] | DC50 (read-out: *DC50) [nM] | DC50 [nM] | **Dmax (%) (% degraded)
1 | Cc1ncsc1-c1ccc([C@H](C)NC(=O)[C@@H]2C[C@@H](O)CN2C(=O)[C@@H](c2cc(N3CCC(CN4CCC(CCOc5cc(N6C7CCC6CN(c6cc(-c8ccccc8O)nnc6N)C7)ccn5)CC4)CC3)no2)C(C)C)cc1 [compound 604, (2S,4R)-1-((2R)-2-(3-(4-((4-(2-((4-(3-(3-amino-6-(2-hydroxyphenyl)pyridazin-4-yl)-3,8-diazabicyclo[3.2.1]octan-8-yl)pyridin-2-yl)oxy)ethyl)piperidin-1-yl)methyl)piperidin-1-yl)isoxazol-5-yl)-3-methylbutanoyl)-4-hydroxy-N-((S)-1-(4-(4-methylthiazol-5-yl)phenyl)ethyl)pyrrolidine-2-carboxamide] | > 75 | < 2.5 | – | –
2 | Cc1ncsc1-c1ccc([C@H](C)NC(=O)[C@@H]2C[C@@H](O)CN2C(=O)[C@@H](c2cc(N3CCC(CN4CCC(O[C@H]5C[C@H](Oc6cc(N7C8CCC7CN(c7cc(-c9ccccc9)nnc7N)C8)ccn6)C5)CC4)CC3)no2)C(C)C)cc1 [compound 605, (2S,4R)-1-((2R)-2-(3-(4-((4-((1r,3r)-3-((4-(3-(3-amino-6-phenylpyridazin-4-yl)-3,8-diazabicyclo[3.2.1]octan-8-yl)pyridin-2-yl)oxy)cyclobutoxy)piperidin-1-yl)methyl)piperidin-1-yl)isoxazol-5-yl)-3-methylbutanoyl)-4-hydroxy-N-((S)-1-(4-(4-methylthiazol-5-yl)phenyl)ethyl)pyrrolidine-2-carboxamide] | – | – | > 30 | –
3 | Cc1nccn1-c1ccc([C@H](C)NC(=O)[C@@H]2C[C@@H](O)CN2C(=O)[C@@H](c2cc(N3CCC(CN4CCC(O[C@H]5C[C@H](Oc6cc(N7C8CCC7CN(c7cc(-c9ccccc9O)nnc7N)C8)ccn6)C5)CC4)CC3)no2)C(C)C)cc1 [compound 606, (2S,4R)-1-((2S)-2-(3-(4-((4-((1r,3r)-3-((4-(3-(3-amino-6-(2-hydroxyphenyl)pyridazin-4-yl)-3,8-diazabicyclo[3.2.1]octan-8-yl)pyridin-2-yl)oxy)cyclobutoxy)piperidin-1-yl)methyl)piperidin-1-yl)isoxazol-5-yl)-3-methylbutanoyl)-4-hydroxy-N-((S)-1-(4-(2-methyl-1H-imidazol-1-yl)phenyl)ethyl)pyrrolidine-2-carboxamide] | > 75 | 10 to 30 | – | –
4 | Cc1nccn1-c1ccc([C@H](C)NC(=O)[C@@H]2C[C@@H](O)CN2C(=O)C(c2cc(N3CCC(CN4CCC(O[C@H]5C[C@H](Oc6cc(N7C8CCC7CN(c7cc(-c9ccccc9O)nnc7N)C8)ccn6)C5)CC4)CC3)no2)C(C)C)cc1 (stereo partly drawn) [compound 607, (2S,4R)-1-((2R)-2-(3-(4-((4-((1r,3r)-3-((4-(3-(3-amino-6-(2-hydroxyphenyl)pyridazin-4-yl)-3,8-diazabicyclo[3.2.1]octan-8-yl)pyridin-2-yl)oxy)cyclobutoxy)piperidin-1-yl)methyl)piperidin-1-yl)isoxazol-5-yl)-3-methylbutanoyl)-4-hydroxy-N-((S)-1-(4-(2-methyl-1H-imidazol-1-yl)phenyl)ethyl)pyrrolidine-2-carboxamide] | > 75 | < 2.5 | – | –
5 | Cc1ncsc1-c1ccc([C@H](C)NC(=O)[C@@H]2C[C@@H](O)CN2C(=O)[C@@H](c2cc(N3CCC(CN4CCN(CC5CC(Oc6cc(N7C8CC[C@@H]7CN(c7cc(-c9ccccc9O)nnc7N)C8)ccn6)C5)CC4)CC3)no2)C(C)C)cc1 (stereo partly drawn) [compound 608, (2S,4R)-1-((2R)-2-(3-(4-((4-(((1r,3r)-3-((4-(3-(3-amino-6-(2-hydroxyphenyl)pyridazin-4-yl)-3,8-diazabicyclo[3.2.1]octan-8-yl)pyridin-2-yl)oxy)cyclobutyl)methyl)piperazin-1-yl)methyl)piperidin-1-yl)isoxazol-5-yl)-3-methylbutanoyl)-4-hydroxy-N-((S)-1-(4-(4-methylthiazol-5-yl)phenyl)ethyl)pyrrolidine-2-carboxamide] | – | < 2.5 | – | A (A > 75)
